Measured values published in US20230116039A1, “DISINFECTION SOLUTION WITH TWO-PART FORMULATION” (ASP GLOBAL MANUFACTURING GMBH, priority 2020, published 2023).

Key:
[1] = Stability of ready-to-use PAA solution, pH adjusted with ethanolamine, with or without chelant, heated at 56° C. for one hour; type: physicochemical; settings: initial PAA 0.35%, water hardness 200 ppm, pH 5 with ethanolamine
Text: (§1) In these studies, peracetic acid (PAA) was combined with hard water having a water hardness of 200 parts per million (“ppm”) such that the resulting solution included a 0.35% concentration of PAA. The pH of the solution was adjusted to 5 using a pH modifier. In a first batch of the solution, the pH modifier used was ethanolamine. In a second batch of the solution, the pH modifier used was disodium phosphate. Test specimens from these two batches were created by individually adding chelants thereto. The chelants used in these studies are those used for removing ions (e.g. Calcium and Magnesium) from hard water, and included tetrasodium EDTA, TRILON® M (methylglycinediacetic acid trisodium salt (MGDA-Na3)), TRILON® C (diethylenetriaminepentaacetic acid pentasodium salt (DTPA-Na5)), sodium citrate, and DISSOLVINE® GL (glutamic acid diacetic acid tetrasodium salt (GLDA-Na4)). Test specimens from these two batches were also created that lacked any such chelants. In some instances, test specimens were created for different concentrations of certain of these chelants. Table 1 reflects test specimens made from the first batch of the solution. Table 2 reflects test specimens made from the second batch of the solution. The tables also reflect the concentration of each chelant in each specimen as a percentage. Each specimen was heated at 56° C. for one hour. At the end of the hour, the PAA concentration was determined. The final concentration of PAA is provided in Table 1 and Table 2 alongside the change in the PAA concentration as determined at the end of the hour (“Δ PAA %”).

[2] = Stability of ready-to-use PAA solution, pH adjusted with disodium phosphate, with or without chelant, heated at 56° C. for one hour; type: physicochemical; settings: initial PAA 0.35%, water hardness 200 ppm, pH 5 with disodium phosphate
Text: as §1

Row | Final PAA Concentration (%) ([2]; chelant concentration 0.2%) | Δ PAA % ([2]; chelant concentration 0.2%) [%] | SMILES | Final PAA Concentration (%) ([1]; chelant concentration 0.2%) | Δ PAA % ([1]; chelant concentration 0.2%) [%] | Final PAA Concentration (%) ([1]; chelant concentration 0.6%) | Δ PAA % ([1]; chelant concentration 0.6%) [%] | Final PAA Concentration (%) ([2]; chelant concentration 0.6%) | Δ PAA % ([2]; chelant concentration 0.6%) [%] | Final PAA Concentration (%) ([1]; chelant concentration 0.1%) | Δ PAA % ([1]; chelant concentration 0.1%) [%] | Final PAA Concentration (%) ([1]; chelant concentration 0.4%) | Δ PAA % ([1]; chelant concentration 0.4%) [%] | Final PAA Concentration (%) ([2]; chelant concentration 0.1%) | Δ PAA % ([2]; chelant concentration 0.1%) [%] | Final PAA Concentration (%) ([2]; chelant concentration 0.4%) | Δ PAA % ([2]; chelant concentration 0.4%) [%]
1 |  |  | O=C([O-])CN(CCN(CC(=O)[O-])CC(=O)[O-])CC(=O)[O-].[Na+].[Na+].[Na+].[Na+] [Na4EDTA, tetrasodium EDTA, reference compound] |  |  |  |  |  |  | 0.21 | −40 | 0.14 | −60 | 0.28 | −20 | 0.18 | −49
2 | 0.26 | −26 | O=C([O-])CN(CCN(CC(=O)[O-])CC(=O)[O-])CCN(CC(=O)[O-])CC(=O)[O-].[Na+].[Na+].[Na+].[Na+].[Na+] [Trilon C (liquid), diethylenetriaminepentaacetic acid pentasodium salt] | 0.22 | −37 |  |  |  |  |  |  |  |  |  |  |  | 
3 | 0.3 | −14 | CC(C(=O)[O-])N(CC(=O)[O-])CC(=O)[O-].[Na+].[Na+].[Na+] (stereo not drawn) [Trilon M (liquid), methylglycinediacetic acid trisodium salt] |  |  | 0.19 | −46 | 0.26 | −26 |  |  |  |  |  |  |  | 
4 |  |  | O=C([O-])CC(O)(CC(=O)[O-])C(=O)[O-].[Na+].[Na+].[Na+] [sodium citrate, reference compound] |  |  |  |  |  |  |  |  | 0.23 | −34 |  |  | 0.26 | −26

Row | SMILES | Final PAA Concentration (%) ([2]; chelant concentration 0.2%) | Δ PAA % ([2]; chelant concentration 0.2%) [%] | Final PAA Concentration (%) ([1]; chelant concentration 0.2%) | Δ PAA % ([1]; chelant concentration 0.2%) [%] | Final PAA Concentration (%) ([1]; chelant concentration 0.6%) | Δ PAA % ([1]; chelant concentration 0.6%) [%] | Final PAA Concentration (%) ([2]; chelant concentration 0.6%) | Δ PAA % ([2]; chelant concentration 0.6%) [%] | Final PAA Concentration (%) ([1]; chelant concentration 0.1%) | Δ PAA % ([1]; chelant concentration 0.1%) [%] | Final PAA Concentration (%) ([1]; chelant concentration 0.4%) | Δ PAA % ([1]; chelant concentration 0.4%) [%] | Final PAA Concentration (%) ([2]; chelant concentration 0.1%) | Δ PAA % ([2]; chelant concentration 0.1%) [%] | Final PAA Concentration (%) ([2]; chelant concentration 0.4%) | Δ PAA % ([2]; chelant concentration 0.4%) [%]
5 | O=C([O-])CC[C@@H](C(=O)[O-])N(CC(=O)[O-])CC(=O)[O-].[Na+].[Na+].[Na+].[Na+] [Dissolvine (liquid), glutamic acid diacetic acid tetrasodium salt] | 0.29 | −17 | 0.23 | −34 | 0.17 | −51 | 0.25 | −29 |  |  |  |  |  |  |  | 
